Article PMC5374982 (Biochemistry, 2016)
Read-outs that look alike come from different tables or passages of the source.

Experiments:
Test in all cases: 1H–[…] HSQC NMR chemical shift titration
Assay type in all cases: binding
[1] = target: xylanase B2 (XlnB2) (Streptomyces lividans, UniProt P26515)
[2] = target: T1, XlnB2-E87A (Streptomyces lividans, UniProt P26515, E128A)
[3] = target: T1, XlnB2-E87A; remark: listed apart in the source

Compound | Kd [1] | Kd [2] | Kd [3]
OC1OC[C@@H](O[C@@H]2OC[C@@H](O)[C@H](O)[C@H]2O)[C@H](O)[C@H]1O (stereo partly drawn) [X2, xylobiose] | 7.07 mM | 8.71 mM | –
OC1OC[C@@H](O[C@@H]2OC[C@@H](O[C@@H]3OC[C@@H](O[C@@H]4OC[C@@H](O[C@@H]5OC[C@@H](O)[C@H](O)[C@H]5O)[C@H](O)[C@H]4O)[C@H](O)[C@H]3O)[C@H](O)[C@H]2O)[C@H](O)[C@H]1O (stereo partly drawn) [X5, xylopentaose] | – | – | 7.93 mM
